Tested on: S. aureus biofilm
Assay: Model for studying S. aureus biofilm on reconstructed epidermises (scanning electron microscopy)
Format: cell-based, Staphylococcus aureus (MRSA; ATCC 33591)
Conditions: 24 hours after colonization
Method: The test products (P1, P5 or P8) or 5% xylitol (positive control for inhibition of biofilm formation) were applied topically to reconstructed epidermises at a rate of 30 μL/epidermis, after undergoing slight surface abrasion.
After incubation overnight, the products were removed by rinsing and a 2·10^6 cfu inoculum of Staphylococcus aureus (methicillin-resistant S. aureus, MRSA; ATCC 33591) was applied to the surface of the reconstructed epidermises.
Biofilm formation and the effect of the product thereon were observed visually by scanning electron microscopy (SEM) 6 and 24 hours after colonization.

## OC[C@@H](O)[C@H](O)[C@@H](O)CO [xylitol]
  S. aureus biofilm formation on the surface of epidermises, observed by SEM (in words): did not produce biofilm

Source: US11604184B2, “Juvenile atopic dermatitis models” (Laboratoires Expanscience, priority 2016, dated 2023)
